Assay results as given in PubChem BioAssay AID296 (DTP/NCI, 2004).
Several values for one entry are separate records, joined by “and”; a condition that tells them apart may be missing. Equal entries are not always repeated. Records with an inconclusive call do not appear. *1 amine or outer side, *2 acyl side, *3 side chain or, on linkers, in order; H or OH if unused. Where a SMILES comes first, the peptide text is derived from it. Bridges are numbered along the chain shown (N, C = ends). Roman numbers before positions name the chains, in order. [ ]: non-standard residue; d: D form. Actinocin(1to9) = Cc1c2oc3c(C)ccc(C(=O)[*:2])c3nc-2c(C(=O)[*:1])c(N)c1=O; NMeV = CN[CH](C(=O)O)C(C)C; Aze = O=C(O)[CH]1CCN1; Sar = CNCC(=O)O

Tested on: MX-1 breast xenograft, nude mice, tumor weight T/C
Assay: NCI In Vivo Anticancer Drug Screen. Data for tumor model Human Mammary Carcinoma MX-1 Xenograft (intrarenal inoculation) in NU/NU Swiss (nude) mice
Settings: endpoint: mean tumor weight change, higher = larger tumour
Procedure, shortened: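 Compound dosed to mice with transplantable tumor; vehicle group as control. Endpoint survival or tumour size, reported as T/C.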

[1] = dose: 25.0 mg/kg/injection, schedule: Q01DX010 (sc), vehicle: Klucel (hydroxypropylcellulose) (HPC)
[2] = dose: 300.0 mg/kg/injection, schedule: Q04DX003 (sc), vehicle: saline with Tween-80
[3] = dose: 600.0 mg/kg/injection, schedule: Q04DX003 (sc), vehicle: saline with Tween-80
[4] = dose: 1200.0 mg/kg/injection, schedule: Q04DX003 (sc), vehicle: saline with Tween-80
[5] = dose: 2400.0 mg/kg/injection, schedule: Q04DX003 (sc), vehicle: saline with Tween-80
[6] = dose: 1.0 mg/kg/injection, schedule: Q04DX003 (sc), vehicle: saline
[7] = dose: 75.0 mg/kg/injection, schedule: Q04DX003 (sc), vehicle: saline with Tween-80
[8] = dose: 150.0 mg/kg/injection, schedule: Q04DX003 (sc), vehicle: saline with Tween-80
[9] = dose: 75.0 mg/kg/injection, schedule: Q04DX003 (sc), vehicle: suspension in saline
[10] = dose: 150.0 mg/kg/injection, schedule: Q04DX003 (sc), vehicle: suspension in saline
[11] = dose: 300.0 mg/kg/injection, schedule: Q04DX003 (sc), vehicle: saline
[12] = dose: 1200.0 mg/kg/injection, schedule: Q04DX003 (sc), vehicle: saline

In the case of `O=NNc1ccccn1`, the T/C (dose: 1.0 mg/kg/injection, schedule: Q01DX010 (sc), vehicle: saline) is reported as 78 % of control, the T/C (dose: 2.0 mg/kg/injection, schedule: Q01DX010 (sc), vehicle: saline) is reported as 86 % of control and the T/C (dose: 3.13 mg/kg/injection, schedule: Q01DX010 (sc), vehicle: saline) is reported as 20 % of control. The T/C (dose: 4.0 mg/kg/injection, schedule: Q01DX010 (sc), vehicle: saline) was 163 % of control, the T/C (dose: 6.25 mg/kg/injection, schedule: Q01DX010 (sc), vehicle: saline) was 50 % of control and 72 % of control and the T/C (dose: 8.0 mg/kg/injection, schedule: Q04DX003 (sc), vehicle: saline) was 103 % of control. For the same compound, the T/C (dose: 25.0 mg/kg/injection, schedule: Q01DX010 (sc), vehicle: saline) was 1 % of control and the T/C (dose: 64.0 mg/kg/injection, schedule: Q01DX010 (sc), vehicle: saline) was -87 % of control.
In the case of `C[C@@H]1C[C@H]2[C@@H]3CCC4=CC(=O)C=C[C@]4(C)[C@@]3(F)[C@@H](O)C[C@]2(C)[C@@]1(O)C(=O)CO`, the T/C (dose: 3.13 mg/kg/injection, schedule: Q01DX010 (sc), vehicle: Klucel (hydroxypropylcellulose) (HPC)) is reported as 44 % of control, the T/C (dose: 6.25 mg/kg/injection, schedule: Q01DX010 (sc), vehicle: Klucel (hydroxypropylcellulose) (HPC)) is reported as 28 % of control and the T/C (dose: 12.5 mg/kg/injection, schedule: Q01DX010 (sc), vehicle: Klucel (hydroxypropylcellulose) (HPC)) is reported as 35 % of control. The T/C [1] was 33 % of control.
With `CCC(=O)Sc1ccccc1C(=O)Nc1ccc(Cl)cc1` the T/C [2] was 63 % of control, the T/C [3] was 75 % of control and the T/C [4] was 58 % of control. The T/C [5] was 69 % of control.
With `O=C1N=C(Oc2ccccc2)SC1=O` the T/C (dose: 400.0 mg/kg/injection, schedule: Q04DX003 (sc), vehicle: saline with Tween-80) was 67 % of control.
`CC1(C)CC2(C)OC2C2(C1)N=NC(=Nc1ccccc1)O2` (stereo not given) was tested, and the T/C [2] was 79 % of control, the T/C [3] was 81 % of control and the T/C [4] was 88 % of control. The T/C [5] was 81 % of control.
With `C/C=C1\C[C@@H]2C(OC)Nc3cc(O)c(OC)cc3C(=O)N2C1` (stereo not given in full) the T/C [6] was 78 % of control, the T/C (dose: 2.0 mg/kg/injection, schedule: Q04DX003 (sc), vehicle: suspension in saline) was 23 % of control and 31 % of control and the T/C (dose: 4.0 mg/kg/injection, schedule: Q04DX003 (sc), vehicle: saline) was 7 % of control and 26 % of control. For the same compound, the T/C (dose: 4.0 mg/kg/injection, schedule: Q04DX003 (sc), vehicle: suspension in saline) was 1 % of control and 3 % of control and the T/C (dose: 8.0 mg/kg/injection, schedule: Q04DX003 (sc), vehicle: suspension in saline) was -71 % of control.
`CCOC(=O)CNC(=O)CCCCSc1ncnc2nc[nH]c12` was tested, and the T/C [4] was 109 % of control and the T/C [5] was 86 % of control.
In the case of `O=C(Nc1nncs1)c1cccs1`, the T/C [2] is reported as 98 % of control, the T/C [3] is reported as 177 % of control and the T/C [4] is reported as 115 % of control. The T/C [5] was 65 % of control.
In the case of `Cn1c2nc(=O)n(-c3ccccc3)c(=O)c-2nc2c1CCCC2`, the T/C (dose: 37.5 mg/kg/injection, schedule: Q04DX003 (sc), vehicle: saline with Tween-80) is reported as 104 % of control, the T/C [7] is reported as 111 % of control and the T/C [8] is reported as 87 % of control.
In the case of `Nc1nc2n[nH]nc2c(=O)[nH]1`, the T/C (dose: 75.0 mg/kg/injection, schedule: Q04DX003 (ip), vehicle: suspension in saline) is reported as 22 % of control and 46 % of control, the T/C [9] is reported as 35 % of control and the T/C (dose: 150.0 mg/kg/injection, schedule: Q04DX003 (ip), vehicle: suspension in saline) is reported as 6 % of control. For the same compound, the T/C [10] was 18 % of control, the T/C (dose: 300.0 mg/kg/injection, schedule: Q04DX003 (ip), vehicle: suspension in saline) was 1 % of control and the T/C (dose: 600.0 mg/kg/injection, schedule: Q04DX003 (sc), vehicle: suspension in saline) was -77 % of control.
`COc1cccc2c1C(=O)c1c(O)c3c(c(O)c1C2=O)C[C@@](O)(/C(CO)=N/NC(=O)c1ccc(Cl)c(Cl)c1)C[C@@H]3OC1CC(N)C(O)C(C)O1` (stereo not given in full) was tested, and the T/C (dose: 8.0 mg/kg/injection, schedule: Q01DX010 (sc), vehicle: water) was 42 % of control.
In the case of `COc1ccc2c(c1[N+](=O)[O-])CC[C@@H]1[C@@H]2CC[C@]2(C)C(=O)CC[C@@H]12`, the T/C (dose: 150.0 mg/kg/injection, schedule: Q04DX003 (ip), vehicle: saline with Tween-80) is reported as 90 % of control, the T/C (dose: 300.0 mg/kg/injection, schedule: Q04DX003 (ip), vehicle: saline with Tween-80) is reported as 111 % of control and the T/C (dose: 1200.0 mg/kg/injection, schedule: Q04DX003 (ip), vehicle: saline with Tween-80) is reported as 102 % of control.
For `O=C1C(=O)c2cccnc2-c2ncccc21`, the T/C (dose: 20.0 mg/kg/injection, schedule: Q04DX003 (sc), vehicle: Klucel (hydroxypropylcellulose) (HPC)) was 60 % of control.
For `Cc1c2oc3c(C)ccc(C(=O)NC4C(=O)NC(C(C)C)C(=O)N5CCCC5C(=O)N(C)CC(=O)N(C)C(C(C)C)C(=O)OC4C)c3nc-2c(C(=O)NC2C(=O)NC(C(C)C)C(=O)N3CCC3C(=O)N(C)CC(=O)N(C)C(C(C)C)C(=O)OC2C)c(N)c1=O` (stereo not given) (I: TV[Aze][Sar][NMeV] / II: TVP[Sar][NMeV]; ester I:1-I:C, II:1-II:C; linker I:N-II:N via Actinocin(1to9); configuration not given here), the T/C (dose: 0.25 mg/kg/injection, schedule: Q04DX003 (sc), vehicle: saline + alcohol) was 53 % of control, the T/C (dose: 0.5 mg/kg/injection, schedule: Q04DX003 (sc), vehicle: saline + alcohol) was 12 % of control and the T/C (dose: 0.5 mg/kg/injection, schedule: Q04DX003 (sc), vehicle: saline) was 112 % of control. The T/C (dose: 1.0 mg/kg/injection, schedule: Q04DX003 (sc), vehicle: saline + alcohol) was -80 % of control, the T/C [6] was 47 % of control and the T/C (dose: 2.0 mg/kg/injection, schedule: Q04DX003 (sc), vehicle: saline) was 40 % of control.
With `Cc1cc(NCCCN(C)C)c2ccc3c(ccc4c(NCCCN(C)C)cc(C)nc43)c2n1` the T/C (dose: 9.38 mg/kg/injection, schedule: Q04DX003 (sc), vehicle: saline with Tween-80) was 77 % of control and the T/C (dose: 18.75 mg/kg/injection, schedule: Q04DX003 (sc), vehicle: saline with Tween-80) was 65 % of control.
With `COC(=O)Nc1cccc(-c2nc3ccc(NC(=O)OC)cc3c(=O)n2-c2ccccc2)c1` the T/C [1] was 87 % of control, the T/C (dose: 100.0 mg/kg/injection, schedule: Q01DX010 (sc), vehicle: Klucel (hydroxypropylcellulose) (HPC)) was 33 % of control and the T/C (dose: 400.0 mg/kg/injection, schedule: Q01DX010 (sc), vehicle: Klucel (hydroxypropylcellulose) (HPC)) was 123 % of control.
In the case of `[CH3][Sn]([CH3])([Cl])[S]CCN`, the T/C (dose: 18.75 mg/kg/injection, schedule: Q04DX003 (sc), vehicle: suspension in saline) is reported as 77 % of control and the T/C [9] is reported as 157 % of control.
`CCCCCCCCCCCCCCCCCCOCC(COP(=O)([O-])OCC[N+](C)(C)C)OC` (stereo not given) was tested, and the T/C (dose: 150.0 mg/kg/injection, schedule: Q04DX003 (sc), vehicle: saline) was 120 % of control.
With `CS(=O)(=O)c1ncc(Br)cn1` the T/C (dose: 25.0 mg/kg/injection, schedule: Q01DX010 (sc), vehicle: suspension in saline) was 79 % of control, the T/C [7] was 98 % of control and the T/C [8] was 121 % of control. For the same compound, the T/C [2] was 119 % of control.
`NC(Cn1ccc(=O)c(O)c1)C(=O)O` (stereo not given) was tested, and the T/C [11] was 72 % of control, the T/C [12] was 88 % of control and the T/C (dose: 2400.0 mg/kg/injection, schedule: Q04DX003 (sc), vehicle: saline) was 88 % of control.
In the case of `OCCN1CCN(CC/C=C2/c3ccccc3Sc3ccc(C(F)(F)F)cc32)CC1`, the T/C (dose: 30.0 mg/kg/injection, schedule: Q04DX003 (sc), vehicle: saline) is reported as 65 % of control, the T/C (dose: 60.0 mg/kg/injection, schedule: Q04DX003 (sc), vehicle: saline) is reported as 43 % of control and the T/C (dose: 120.0 mg/kg/injection, schedule: Q04DX003 (sc), vehicle: saline) is reported as 29 % of control and 43 % of control. For the same compound, the T/C (dose: 240.0 mg/kg/injection, schedule: Q04DX003 (sc), vehicle: saline) was 17 % of control and 21 % of control.
With `COC(=O)C(N)Cc1ccc(O)c(O)c1` (stereo not given) the T/C [11] was 106 % of control, the T/C (dose: 600.0 mg/kg/injection, schedule: Q04DX003 (sc), vehicle: saline) was 101 % of control and the T/C [12] was 105 % of control.
With `COC1=NCN=C2SC=C(N)N=C12` the T/C (dose: 37.5 mg/kg/injection, schedule: Q04DX003 (sc), vehicle: suspension in saline) was 50 % of control, the T/C [9] was 30 % of control and the T/C [10] was 43 % of control.
`CCCCCC#CC1OC12CCCCC2` (stereo not given) was tested, and the T/C [2] was 83 % of control, the T/C [3] was 101 % of control and the T/C [4] was 83 % of control. The T/C [5] was 78 % of control.
With `CCOC(=O)C1=C(C#N)C2(CCC(OCc3ccccc3)CC2)C(=O)O1` (stereo not given) the T/C (dose: 200.0 mg/kg/injection, schedule: Q04DX003 (sc), vehicle: suspension in saline) was 81 % of control, the T/C (dose: 400.0 mg/kg/injection, schedule: Q04DX003 (sc), vehicle: suspension in saline) was 119 % of control and the T/C (dose: 800.0 mg/kg/injection, schedule: Q04DX003 (sc), vehicle: suspension in saline) was 52 % of control. For the same compound, the T/C (dose: 1600.0 mg/kg/injection, schedule: Q04DX003 (sc), vehicle: suspension in saline) was 62 % of control.
